Where two headings read alike, the source gives them in different places.
Target: MTH1 (Homo sapiens, UniProt P36639)
Experiment: MTH1 enzymatic assay (malachite green, coupled to pyrophosphatase)
Format: biochemical
Experimental: MTH1 catalyzes the hydrolysis of dGTP to dGMP and PPi. By coupling the reaction to pyrophosphatase added in excess PPi is converted to Pi that can be detected by using the malachite green assay reagent. […] 96-well method: Briefly, the compound to be analyzed is diluted in DMSO in a 1:3 dilution series generating 12 different compound concentrations giving a final DMSO concentration of 1% in the assay well. MTH1 diluted in assay buffer (100 mM Tris-acetate, 40 mM NaCl, 10 mM magnesium acetate, 1 mM DTT and 0.005% Tween 20) fortified with E. coli pyrophosphatase (0.2 U/ml) is added to a final concentration of 6 nM. dGTP diluted in assay buffer is added to a final concentration of 100 μM. The reaction mixture is incubated for 15 minutes at 22° C. To 100 μl reaction mixture, 25 μl Malachite green assay regent (0.095% Malachite green in 17% H2SO4, 1.5% Ammonium molybdate, 0.17% Tween 20) is added, followed by incubation with shaking for 15 minutes at 22° C. The absorbance of the assay plate is read at 630 nm using a Hidex Sense Multilabel plate reader. The IC50 value is determined by fitting a dose response curve to the data points using nonlinear regression analysis and the equation Y=Bottom+(Top-Bottom)/(1+10^((Log IC50−X)*HillSlope)), where Y is the read absorbance at 630 nm and X is log [compound].
384-Well Method: The compounds to be tested are nano-dispensed, in 11 concentrations, directly in assay plates, with a final DMSO concentration <1%. The protocol and the reaction mixture are the same as for the 96-well assay, with a total reaction volume of 50 μl/well to which 10 μl of Malachite green reagent is added. All additions to the assay plates are made with multidrop.

[1] = dGTP 100 μM, MTH1 6 nM, 96- or 384-well format, read-out: IC50

SMILES | IC50 [1] [nM] | IC50 [nM]
Nc1nc(NC2CCCCC2)cc(-c2ccccc2)n1 [Example 1, 4-N-cyclohexyl-6-phenylpyrimidine-2,4-diamine] | < 200 | –
CCNc1cc(-c2ccccc2)nc(N)n1 [Example 2, 4-N-ethyl-6-phenylpyrimidine-2,4-diamine] | < 200 | –
Nc1nc(NC2CCOCC2)cc(-c2ccccc2)n1 [Example 7, 4-N-(oxan-4-yl)-6-phenylpyrimidine-2,4-diamine] | < 200 | –
Nc1nc(NC2CC2)cc(-c2ccc(Cl)cc2)n1 [Example 13, 6-(4-chlorophenyl)-4-N-cyclopropylpyrimidine-2,4-diamine] | < 200 | –
Nc1nc(NC2CC2)cc(-c2cccc(C(F)(F)F)c2)n1 [Example 16, 4-N-cyclopropyl-6-[3-(trifluoromethyl)phenyl]pyrimidine-2,4-diamine] | < 200 | –
Nc1nc(NC2CC2)cc(-c2cccc(Cl)c2)n1 [Example 19, 6-(3-chlorophenyl)-4-N-cyclopropylpyrimidine-2,4-diamine] | < 200 | –
CNc1cc(-c2cn(S(=O)(=O)c3ccc(C)cc3)c3ccccc23)nc(N)n1 [Example 23, 4-N-methyl-6-[1-(4-methylbenzenesulfonyl)-1H-indol-3-yl]pyrimidine-2,4-diamine] | < 200 | –
CNc1cc(-c2cn(S(=O)(=O)c3ccccc3)c3ccccc23)nc(N)n1 [Example 26, 6-[1-(benzenesulfonyl)-1H-indol-3-yl]-4-N-methylpyrimidine-2,4-diamine] | < 200 | –
Cc1ccc(S(=O)(=O)n2cc(-c3cc(NC4CC4)nc(N)n3)c3ccccc32)cc1 [Example 27, 4-N-cyclopropyl-6-[1-(4-methylbenzenesulfonyl)-1H-indol-3-yl]pyrimidine-2,4-diamine] | < 200 | –
Nc1nc(NC2CC2)cc(-c2cn(S(=O)(=O)c3ccccc3)c3ccccc23)n1 [Example 28, 6-[1-(benzenesulfonyl)-1H-indol-3-yl]-4-N-cyclopropylpyrimidine-2,4-diamine] | < 200 | –
CNc1cc(-c2cn(S(=O)(=O)c3ccccc3)c3ncccc23)nc(N)n1 [Example 29, 6-[1-(benzenesulfonyl)-1H-pyrrolo[2,3-b]pyridin-3-yl]-4-N-methylpyrimidine-2,4-diamine] | < 200 | –
CNc1cc(-c2cccc3c2ccn3S(=O)(=O)c2ccccc2)nc(N)n1 [Example 30, 6-[1-(benzenesulfonyl)-1H-indol-4-yl]-4-N-methylpyrimidine-2,4-diamine] | < 200 | –
CNc1cc(-c2ccc(OC)cc2)nc(N)n1 [Example 33, 6-(4-methoxyphenyl)-4-N-methylpyrimidine-2,4-diamine] | < 200 | –
CNc1cc(-c2cc(C(F)(F)F)cc(C(F)(F)F)c2)nc(N)n1 [Example 34, 6-[3,5-bis(trifluoromethyl)phenyl]-4-N-methylpyrimidine-2,4-diamine] | < 200 | –
CNc1cc(-c2cccc(C(F)(F)F)c2)nc(N)n1 [Example 37, 4-N-methyl-6-[3-(trifluoromethyl)phenyl]pyrimidine-2,4-diamine] | < 200 | –
CNc1cc(-c2cccc(Cl)c2Cl)nc(N)n1 [Example 38, 6-(2,3-dichlorophenyl)-4-N-methylpyrimidine-2,4-diamine] | – | < 200
CNc1cc(-c2ccc3c(c2)OCO3)nc(N)n1 [Example 39, 6-(2H-1,3-benzodioxol-5-yl)-4-N-methylpyrimidine-2,4-diamine] | < 200 | –
CNc1cc(-c2cccc(NC(C)=O)c2)nc(N)n1 [Example 41, N-{3-[2-amino-6-(methylamino)pyrimidin-4-yl]phenyl}acetamide] | < 200 | –
CNc1cc(-c2ccc(NC(C)=O)cc2)nc(N)n1 [Example 47, N-{4-[2-amino-6-(methylamino)pyrimidin-4-yl]phenyl}acetamide] | < 200 | –
CNc1cc(-c2ccc(OC)nc2)nc(N)n1 [Example 49, 6-(6-methoxypyridin-3-yl)-4-N-methylpyrimidine-2,4-diamine.] | < 200 | –

SMILES | IC50 [1] [nM] | IC50 [nM]
CNc1cc(-c2ccc(-c3ccccc3)cc2F)nc(N)n1 [Example 50, 6-(2-fluoro-4-phenylphenyl)-4-N-methylpyrimidine-2,4-diamine.] | < 200 | –
C=CCNc1cc(-c2ccc(Cl)cc2)nc(N)n1 [Example 53, 6-(4-chlorophenyl)-4-N-(prop-2-en-1-yl)pyrimidine-2,4-diamine] | < 200 | –
Nc1nc(NC2CCC2)cc(-c2ccc(Cl)cc2)n1 [Example 58, 6-(4-chlorophenyl)-4-N-cyclobutylpyrimidine-2,4-diamine] | < 200 | –
CCCCCNc1cc(-c2cccc(Cl)c2Cl)nc(N)n1 [Example 61, 6-(2,3-dichlorophenyl)-4-N-pentylpyrimidine-2,4-diamine] | < 200 | –
CC(C)(C)Nc1cc(-c2cccc(Cl)c2Cl)nc(N)n1 [Example 63, 4-N-tert-butyl-6-(2,3-dichlorophenyl)pyrimidine-2,4-diamine] | < 200 | –
CNc1cc(-c2ccc(Cl)c(Cl)c2)nc(N)n1 [Example 68, 6-(3,4-dichlorophenyl)-4-N-methylpyrimidine-2,4-diamine] | < 200 | –
CNc1cc(-c2ccc(C(C)(C)C)cc2)nc(N)n1 [Example 69, 6-(4-tert-butylphenyl)-4-N-methylpyrimidine-2,4-diamine] | < 200 | –
CNc1cc(-c2ccc(C)cc2)nc(N)n1 [Example 70, 4-N-methyl-6-(4-methylphenyl)pyrimidine-2,4-diamine] | < 200 | –
CNc1cc(-c2ccc(Cl)cc2Cl)nc(N)n1 [Example 71, 6-(2,4-dichlorophenyl)-4-N-methylpyrimidine-2,4-diamine] | < 200 | –
CNc1cc(-c2ccc(F)cc2F)nc(N)n1 [Example 75, 6-(2,4-difluorophenyl)-4-N-methylpyrimidine-2,4-diamine] | < 200 | –
CNc1cc(-c2cc(F)ccc2OC)nc(N)n1 [Example 76, 6-(5-fluoro-2-methoxyphenyl)-4-N-methylpyrimidine-2,4-diamine] | < 200 | –
CNc1cc(-c2ccc(OC)c(F)c2)nc(N)n1 [Example 82, 6-(3-fluoro-4-methoxyphenyl)-4-N-methylpyrimidine-2,4-diamine] | < 200 | –
CNc1cc(-c2ccc(F)c(F)c2)nc(N)n1 [Example 83, 6-(3,4-difluorophenyl)-4-N-methylpyrimidine-2,4-diamine] | < 200 | –
CNc1cc(-c2ccc(OC(C)C)cc2)nc(N)n1 [Example 84, 4-N-methyl-6-[4-(propan-2-yloxy)phenyl]pyrimidine-2,4-diamine] | < 200 | –
CNc1cc(-c2cccc(C)c2C)nc(N)n1 [Example 86, 6-(2,3-dimethylphenyl)-4-N-methylpyrimidine-2,4-diamine] | < 200 | –
CNc1cc(-c2ccc(Cl)c(F)c2)nc(N)n1 [Example 88, 6-(4-chloro-3-fluorophenyl)-4-N-methylpyrimidine-2,4-diamine] | < 200 | –
CNc1cc(-c2cccc(C(F)(F)F)c2Cl)nc(N)n1 [Example 91, 6-[2-chloro-3-(trifluoromethyl)phenyl]-4-N-methylpyrimidine-2,4-diamine] | < 200 | –
CNc1cc(-c2cccc(F)c2Cl)nc(N)n1 [Example 92, 6-(2-chloro-3-fluorophenyl)-4-N-methylpyrimidine-2,4-diamine] | < 200 | –
CNc1cc(-c2cccc(Cl)c2C)nc(N)n1 [Example 94, 6-(3-chloro-2-methylphenyl)-4-N-methylpyrimidine-2,4-diamine] | < 200 | –

Source: US10632125B2, “MTH1 inhibitors for treatment of inflammatory and autoimmune conditions” (THOMAS HELLEDAYS STIFTELSE FÖR MEDICINSK FORSKNING, priority 2014, dated 2020)
